Measurements from patent US20190275035A1, “WNT ANTAGONISTS AND THEIR USE IN METHODS FOR TREATING MYOCARDIAL INFARCTION” (RUPRECHT-KARLS-UNIVERSITÄT HEIDELBERG, priority 2016, published 2019).

Test system: non-canonical WNT signaling in monocytes/macrophages
Experiment: PBMC-derived macrophages stimulated with supernatant of hypoxic AdWIF1-transfected cardiomyocytes
Format: cell-based, rat
Experimental: Neonatal rat ventricular cardiomyocytes (NRVCMs) were isolated as previously described (Hagenmueller et al. 2010). After plating, NRVCMs were allowed to adhere overnight. Cardiomyocytes were cultured under hypoxic conditions (1.5% O2) for either four or 24 hours. Supernatant, RNA and proteins were harvested.
Premade WIF1 and control adenovirus was purchased from Applied Biological Materials Inc. (Richmond, Canada). Adenovirus was amplified according to the manufacturer's instructions. Cardiomyocytes were transfected according to manufacturer's instructions. WIF1 overexpression was allowed to establish for 48 hours. Transfected cardiomyocytes were than cultured under hypoxic conditions as described above (see 1.9).
Adult rats were euthanized using a high dose of pentobarbital. Blood was collected by cardiac puncture into EDTA-coated sample tubes. Mononuclear cells were separated using Histopaque 1083 (Sigma-Aldrich Chemie GmbH, Taufkirchen, Germany) according to manufacturer's instructions. Monocytes/macrophages were allowed to adhere to the cell culture dish for two hours. Non-adherent mononuclear cells were discarded. Macrophages were stimulated with supernatant of hypoxic cardiomyocytes for four hours.
Protein lysates of primary cells and heart tissue were prepared using RIPA buffer supplemented with phosphatase/proteinase inhibitors (Cell Signaling Technology, Danvers, USA). Protein concentrations were measured using BCA assay (ThermoFisher Scientific, Waltham, USA). Equal amounts of protein were separated onto four 15% SDS-PAGE gradient gels (Bio-Rad Laboratories GmbH, München, Germany) and transferred to PVDF membranes (Merck Chemicals GmbH, Darmstadt, Germany). The following primary and HPR-conjugated secondary antibodies were used: monoclonal mouse anti-Active-β-Catenin (anti ABC), clone 8E7 (Merck Millipore, Darmstadt, Germany); monoclonal rabbit anti-JNK1+JNK2+JNK3 [EP1597Y] […] Protein expression was analyzed using ImageJ. Protein bands were normalized to GAPDH (respectively actin) loading control for quantification. […]

[1] = supernatant of WIF1-overexpressing cardiomyocytes vs control cells, FIG. 6B

## WIF1: cardiomyocyte-derived WIF1 in supernatant of hypoxic cardiomyocytes transfected with WIF1 adenovirus (AdWIF1)
[1]
  transcription level of pro-inflammatory cytokine IL1β: reduced
  transcription level of pro-inflammatory cytokine IL6: reduced
Supernatant of hypoxic WIF1-overexpressing cardiomyocytes vs control supernatant, FIG. 6A
  JNK phosphorylation in isolated monocytes/macrophages: significantly reduced
